# Results: the METLIN SMRT retention time set (Domingo-Almenara et al. 2019)
# Assay: gradient 5% acetonitrile 3 min, to 50% in 2 min, to 85% in 15 min, held 3 min, 100 µL/min
# Details: column: Zorbax Extend-C18 2.1 x 50 mm; eluents: water / acetonitrile, 0.1% formic acid
# Method in brief: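 Retention time was recorded from adduct peaks, which were picked computationally and each inspected manually. Pure standards ran in mixtures of ~100 molecules on HPLC coupled to a quadrupole time-of-flight mass spectrometer, in positive and negative ionization mode, through a Zorbax Extend-C18 column (2.1 × 50 mm, 1.8 μm) at 100 μL/min. Eluents were water and acetonitrile, each with 0.1% formic acid.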
row,RP-LC retention time [s],Structure (SMILES)
1,769,COC(=O)c1cccc(NC(=O)NC2CCN(c3ccccc3)C2=O)c1 (stereo not given)
2,936,CCNc1nn2ccccc2c1/C=C(/C#N)C(=O)OCC
3,1300,COc1ccc(-c2csc(C(=O)n3nc(C)cc3C)c2-n2cccc2)cc1
4,721,O=C1CCN(C(=O)C2(c3ccccc3)CC2)CCCCCCN1
5,707,CCCC(=O)Nc1ccc2c(c1)CN(C(=O)c1ccccc1Cl)C(C(=O)N(C)C)C2 (stereo not given)
6,639,CCN(CC)S(=O)(=O)c1ccc2c(c1)cc(C(=O)NCCN(C)C)n2C
7,562,O=C(Nc1ccc2nnc(-c3ccc(C(=O)N4CCCCC4)cc3)n2c1)C1CCC1
8,1250,Cc1ccc(-c2cc3c(=O)n(Cc4nc(-c5ccccc5Br)no4)ncn3n2)c(C)c1
9,893,COC(=O)c1ccc(-c2nc3cnccn3c2Nc2ccccc2OC)cc1
10,925,N#Cc1ccc(C(=O)N2CCCC2c2nc(-c3ccccc3)no2)cc1 (stereo not given)
11,630,CCCOC1CCN(C(=O)NC)CC1
12,620,Cc1nc2ccc(Cl)cn2c(=O)c1NC(=O)c1cccs1
13,656,CCOCCCNC(=O)C1CCN(S(=O)(=O)c2ccc3c(c2)CCCC(=O)N3)CC1
14,698,COCCNc1c(-c2ccc(OC)cc2)nc2sc(C(=O)N(C)C)c(C)n12
15,886,Cc1ccc(C)c(-n2ccn(Cc3nc(-c4ccccc4)no3)c(=O)c2=O)c1
16,844,Cc1ccsc1C(=O)N1CCC2(CC1)NC(=O)N(Cc1ccc(Cl)cc1)C2=O

# More lines, now with the values behind:
row,Structure (SMILES),RP-LC retention time [s]
1,COc1ccc2c(c1)c(CC(=O)O)c(C)n2Cc1ccc(Cl)cc1,1060
2,CN1C(=O)c2cc(C(=O)NCc3ccc(Cl)cc3)nn2CC1(C)C(=O)NCc1ccccc1 (stereo not given),832
3,CC(C)OCCCNC(=O)c1cc2n(n1)CCCN(Cc1ccc(F)cc1)C2=O,795
4,Cc1ccc(-n2cc3c(N4CCCC(C(=O)NCc5ccc(F)cc5F)C4)ncnc3n2)cc1 (stereo not given),729
5,COc1ccc(C(=O)NC(CC(C)C)C(=O)Nc2nc3ccccc3[nH]2)cc1OC (stereo not given),705
6,Cc1ccc(CNc2c(-c3ccc(F)cc3)nc3ncccn23)cc1,789
7,Cc1ccc(Cn2c(N3CCCC(C(=O)NCc4ccc(F)cc4)C3)nc3ccsc3c2=O)cc1 (stereo not given),993
8,Cc1ccc(C)c(NC(=O)C2CCN(C(=O)c3ncn4c3COC(c3ccc(F)cc3)C4)CC2)c1 (stereo not given),809
9,Cc1ccc(C(=O)NCc2ccc3c(c2)CCCN3C(=O)C2CCC2)c(C)c1,941
10,O=C(Nc1cccc2ccccc12)N1CCOCC1,639
11,COc1ccc2[nH]cc(CCN3CC(C(=O)Nc4ccc5c(c4)CCC5)CC3=O)c2c1 (stereo not given),841
12,COC(=O)c1ccc2c(=O)n(-c3ccc(Cl)cc3)c(N3CCOCC3)nc2c1,975
13,COc1ccc(C2Cn3nc(-c4nc(C(C)(C)C)no4)cc3CO2)cc1 (stereo not given),611
14,O=c1cc(-c2ccc(F)cc2)ncn1Cc1cccc(C(F)(F)F)c1,940
15,CCOC(=O)Cc1ccc(NC(=O)NC(C)C(=O)N2CCc3ccccc32)cc1 (stereo not given),857
16,CCOC(=O)c1c(S(=O)(=O)N2CCC(C(=O)Nc3ccc(C)c(F)c3)CC2)c(C)n(C)c1C,924
17,COc1ccc(CNC2=NCCNC23CCN(S(=O)(=O)c2ccc(C(C)C)cc2)CC3)cc1,814
18,COc1ccc(C2CN(S(=O)(=O)c3ccc(C#N)cc3)CCN2C)cc1 (stereo not given),564
19,COc1cc2c(cc1O)[C@@H](Cc1ccc(O)c(Oc3ccc(C[C@@H]4c5cc(OC)c(OC)cc5CCN4C)cc3)c1)N(C)CC2,639
20,CCCNC(=O)CCC1CCN(c2cc(NC3CC3)ncn2)CC1,600
21,O=C(Nc1nccn(-c2ccc(F)c(Cl)c2)c1=O)c1ccc2c(c1)OCO2,802
22,O=C(CCC(=O)N1CCN(c2nc3cccnc3s2)CC1)N1CCCC1,612
23,O=S(=O)(c1ccccc1Cl)N1CCc2nc(-c3ccc(Cl)cc3)ncc2C1,1180
24,Cc1nn(-c2ccccc2)c2c1N(CCCC(=O)NCCN(C)C)C(=O)CS2,602
25,Cc1cc(=O)n(CC(=O)Nc2ccc3c(c2)OCO3)c(-c2ccccc2)n1,941
26,O=C(CCc1nc(-c2ccc(N3CCCC3)cc2)no1)NCCC1=CCCCC1,1170
27,COc1ccccc1Nc1c(-c2ccc(Cl)cc2)nc2cnccn12,1020
28,Cc1cc(C)cc(N2C(=O)CC(N3CCC(C(N)=O)CC3)C2=O)c1 (stereo not given),562
29,CCOC(=O)C1CCN(S(=O)(=O)c2cccc(-c3nnc(-c4ccc(C)cc4)o3)c2)CC1,1090
